Measurements published in patent US20260102383A1, “LPAR1 Inhibitors” (AbbVie Inc., priority 2024, published 2026).

The compounds below were run against T1, human LPAR1 (Homo sapiens, UniProt Q92633) (assay: Arrestin assay (Arrestin Reporter EDG2-bla U2OS), inhibition of LPA-stimulated signal). Details: TangoEDG2-bla U2OS cells expressing human LPAR1; 0.25 μM LPA; read-out: Arrestin Reporter EDG2-bla U2OS Human IC50.
T1 construct: host or cells: TangoEDG2-bla U2OS cells
Type: cell-based
Method in brief: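 TangoEDG2-bla U2OS cells (1×10^4/well, plated 18-20 h) were preincubated 1 h at 37 °C with compound (12-point, 3-fold, 10 μM to 0.00006 μM), then stimulated 3 h with 0.25 μM LPA final. LiveBLAzer FRET B/G 460/530 nm emission ratio gave % inhibition; IC50 from 4-parameter variable-slope fit.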

T1 sequence (Q92633 whole entry): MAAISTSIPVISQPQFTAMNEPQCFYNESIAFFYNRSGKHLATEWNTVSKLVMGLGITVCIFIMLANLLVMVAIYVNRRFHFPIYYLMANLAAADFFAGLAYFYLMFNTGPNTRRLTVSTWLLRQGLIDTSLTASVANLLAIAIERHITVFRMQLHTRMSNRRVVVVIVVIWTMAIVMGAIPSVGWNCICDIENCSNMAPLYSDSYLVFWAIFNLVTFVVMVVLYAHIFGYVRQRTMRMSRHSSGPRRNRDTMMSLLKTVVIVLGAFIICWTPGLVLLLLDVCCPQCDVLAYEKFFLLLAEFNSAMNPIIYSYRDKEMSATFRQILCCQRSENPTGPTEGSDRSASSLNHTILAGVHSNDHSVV

Row | IC50 | Compound
1 | 51.5 nM | CC(C)c1ccnn1C1(C(=O)Nc2ccc(Cl)cc2OC(F)F)CCN([C@H]2C[C@H](C(=O)O)C2)CC1 [Compound 62, (1r,3r)-3-[4-[[4-chloro-2-(difluoromethoxy)phenyl]carbamoyl]-4-(5-isopropylpyrazol-1-yl)-1-piperidyl]cyclobutanecarboxylic acid]
2 | 26.2 nM | COC[C@@H](CN1CCC(C(=O)Nc2ccc(Cl)cc2OC(F)F)(n2ncc(F)c2C(C)C)CC1)C(=O)O [Compound 169, (2R)-2-[[4-[[4-chloro-2-(difluoromethoxy)phenyl]carbamoyl]-4-(4-fluoro-5-isopropyl-pyrazol-1-yl)-1-piperidyl]methyl]-3-methoxy-propanoic acid]

Same assay, conditions: TangoEDG2-bla U2OS cells expressing human LPAR1; 0.25 μM LPA; read-out: Arrestin Reporter EDG2-bla U2OS Human Merged IC50

Row | IC50 | Compound
3 | 41.1 nM | CC(C)c1ccnn1C1(C(=O)Nc2ccc(Cl)cc2OC(F)F)CCN(C[C@H](C(=O)O)[C@@H]2CCOC2)CC1 (single isomer, unassigned) [Compound 152]
4 | 28.8 nM | CC(C)c1ccnn1C1(C(=O)Nc2ccc(Cl)cc2OC(F)F)CCN(C[C@@]2(C(=O)O)CCCO2)CC1 [Compound 20, (2R)-2-[[4-[[4-chloro-2-(difluoromethoxy)phenyl]carbamoyl]-4-(5-isopropylpyrazol-1-yl)-1-piperidyl]methyl] tetrahydrofuran-2-carboxylic acid]
5 | 326 nM | CC(C)c1ccnn1C1(C(=O)Nc2ccc(Cl)cc2OC(F)F)CCN(C[C@H](C(=O)O)N2C[C@@H](C)O[C@H](C)C2)CC1 [Compound 159, (2R)-3-[4-[[4-chloro-2-(difluoromethoxy)phenyl]carbamoyl]-4-(5-isopropylpyrazol-1-yl)-1-piperidyl]-2-[(2R,6R)-2,6-dimethylmorpholin-4-yl]propanoic acid]
6 | 71 nM | CC(C)c1ccnn1C1(C(=O)Nc2ccc(Cl)cc2OC(F)F)CCN(C[C@@]2(C(=O)O)CCOC(C)(C)C2)CC1 [Compound 172, (4R)-4-[[4-[[4-chloro-2-(difluoromethoxy)phenyl]carbamoyl]-4-(5-isopropylpyrazol-1-yl)-1-piperidyl]methyl]-2,2-dimethyl-tetrahydropyran-4-carboxylic acid]
7 | 24.7 nM | CC(C)c1ccnn1C1(C(=O)Nc2ccc(Cl)cc2OC(F)F)CCN(C[C@@]2(C(=O)O)CCOC2)CC1 [Compound 24, (3S)-3-[[4-[[4-chloro-2-(difluoromethoxy)phenyl]carbamoyl]-4-(5-isopropylpyrazol-1-yl)-1-piperidyl]methyl] tetrabydrofuran-3-carboxylic acid]
8 | 178 nM | CC(C)c1ccnn1C1(C(=O)Nc2ccc(Cl)cc2OC(F)F)CCN([C@H]2C[C@@](NS(C)(=O)=O)(C(=O)O)C2)CC1 [Compound 132, (1r,3r)-3-[4-[[4-chloro-2-(difluoromethoxy)phenyl]carbamoyl]-4-(5-isopropylpyrazol-1-yl)-1-piperidyl]-1-(methanesulfonamido) cyclobutanecarboxylic acid]
9 | 8.37 nM | CC(C)c1ccnn1C1(C(=O)Nc2ccc(Cl)cc2OC(F)F)CCN(CC(COCC(F)(F)F)C(=O)O)CC1 (stereo not drawn) [Compound 232, 2-[[4-[[4-chloro-2-(difluoromethoxy)phenyl]carbamoyl]-4-(5-isopropylpyrazol-1-yl)-1-piperidyl]methyl]-3-(2.2,2-trifluoroethoxy)propanoic acid]
10 | 212 nM | CC(C)c1c(F)cnn1C1(C(=O)Nc2ccc(Cl)cc2OC(F)F)CCN(C[C@]2(C(=O)O)CC[C@H](O)CC2)CC1 [Compound 161, (1r,4r)-1-[[4-[[4-chloro-2-(difluoromethoxy)phenyl]carbamoyl]-4-(4-fluoro-S-isopropyl-pyrazol-1-yl)-1-piperidyl]methyl]-4-hydroxy-cyclohexanecarboxylic acid]
11 | 221 nM | CC(C)c1ccnn1C1(C(=O)Nc2ccc(Cl)cc2OC(F)F)CCN([C@H]2C[C@](C#N)(C(=O)O)C2)CC1 [Compound 111, (1r,3r)-3-[4-[[4-chloro-2-(difluoromethoxy)phenyl]carbamoyl]-4-(5-isopropylpyrazol-1-yl)-1-piperidyl]-1-cyano-cyclobutanecarboxylic acid]
12 | 53.2 nM | COCC[C@H](CN1CCC(C(=O)Nc2ccc(Cl)cc2OC(F)F)(n2nccc2C(C)C)CC1)C(=O)O [Compound 157, (2R)-2-[[4-[[4-chloro-2-(difluoromethoxy)phenyl]carbamoyl]-4-(5-isopropylpyrazol-1-yl)-1-piperidyl]methyl]-4-methoxy-butanoic acid]
13 | 78.5 nM | CCC(=O)N1CC[C@@](CN2CCC(C(=O)Nc3ccc(Cl)cc3OC(F)F)(n3nccc3C(C)C)CC2)(C(=O)O)C1 [Compound 100, (3S)-3-[[4-[[4-chloro-2-(difluoromethoxy)phenyl]carbamoyl]-4-(5-isopropylpyrazol-1-yl)-1-piperidyl]methyl]-1-propanoyl-pyrrolidine-3-carboxylic acid]
14 | 14.8 nM | CC(C)c1ccnn1C1(C(=O)Nc2ccc(Cl)cc2OC(F)F)CCN(CC2(C(=O)O)CCN(C(=O)CC3CCCC3)CC2)CC1 [Compound 47, 4-[[4-[[4-chloro-2-(difluoromethoxy)phenyl]carbamoyl]-4(5-isopropylpyrazol-1-yl)-1-piperidyl]methyl]-1-(2-cyclopentylacetyl) piperidine-4-carboxylic acid]
15 | 48.1 nM | CC(C)c1ccnn1C1(C(=O)Nc2ccc(Cl)cc2OC(F)F)CCN([C@H]2C[C@@]3(C[C@H]3C(=O)O)C2)CC1 (relative stereo) [Compound 106, rel-(1R,3r,5S)-5-[4-1[4-chloro-2-(difluoromethoxy)phenyl]carbamoyl]-4-(5-isopropylpyrazol-1-yl)-1-piperidyl]spiro[2.3]hexane-2-carboxylic acid]
16 | 43.6 nM | CC1(C)CCc2cnn(C3(C(=O)Nc4ccc(Cl)cc4OC(F)F)CCN(CC4(C(=O)O)CCOCC4)CC3)c21 [Compound 35, 4-[[4-[[4-chloro-2-(difluoromethoxy)phenyl]carbamoyl]-4-(6,6-dimethyl-4,5-dihydrocyclopenta[c]pyrazol-1-yl)-1-piperidyl]methyl]tetrahydropyran-4-carboxylic acid]
17 | 23.8 nM | CC(C)c1c(F)cnn1C1(C(=O)Nc2ccc(Cl)cc2OC(F)F)CCN(CC(C)(C)C(=O)O)CC1 [Compound 240, 3-[4-[[4-chloro-2-(difluoromethoxy)phenyl]carbamoyl]-4-(4-fluoro-5-isopropyl-pyrazol-1-yl)-1-piperidyl]-2,2-dimethyl-propanoic acid]
18 | 74.8 nM | CC(C)c1ccnn1C1(C(=O)Nc2ccc(Cl)cc2OC(F)F)CCN(CC(CCO)C(=O)O)CC1 (stereo not drawn) [Compound 133, 2-[[4-[[4-chloro-2-(difluoromethoxy)phenyl]carbamoyl]-4-(5-isopropylpyrazol-1-yl)-1-piperidyl]methyl]-4-hydroxy-butanoic acid]
19 | 75.9 nM | CO[C@H]1CC[C@H]([C@@H](CN2CCC(C(=O)Nc3ccc(Cl)cc3OC(F)F)(n3nccc3C(C)C)CC2)C(=O)O)CC1 [Compound 187, (2S)-3-[4-[[4-chloro-2-(difluoromethoxy)phenyl]carbamoyl]-4-(5-isopropylpyrazol-1-yl)-1-piperidyl]-2-((1r,4S)-4-methoxycyclohexyl) propanoic acid]
20 | 72.4 nM | CC(C)c1ccnn1C1(C(=O)Nc2ccc(Cl)cc2OC(F)F)CCN([C@H]2C[C@](O)(C(=O)O)C2)CC1 [Compound 164, (1s,3s)-3-[4-[[4-chloro-2-(difluoromethoxy)phenyl]carbamoyl]-4-(5-isopropylpyrazol-1-yl)-1-piperidyl]-1-hydroxy-cyclobutanecarboxylic acid]
21 | 539 nM | CC(C)c1ccnn1C1(C(=O)Nc2ccc(Cl)cc2OC(F)F)CCN(CC2(C(=O)O)CCN(C(=O)C[C@@H]3CCOC3)CC2)CC1 [Compound 93, 4-[[4-[[4-chloro-2-(difluoromethoxy)phenyl]carbamoyl]-4-(5-isopropylpyrazol-1-yl)-1-piperidyl]methyl]-1-[2-[(3S)-tetrahydrofuran-3-yl]acetyl]piperidine-4-carboxylic acid]
22 | 20.8 nM | COC[C@H](CN1CCC(C(=O)Nc2ccc(Cl)cc2OC(F)F)(n2nccc2C(C)C)CC1)C(=O)O [Compound 118, (2S)-2-[[4-[[4-chloro-2-(difluoromethoxy)phenyl]carbamoyl]-4-(5-isopropylpyrazol-1-yl)-1-piperidyl]methyl]-3-methoxy-propanoic acid]
23 | 55.3 nM | CC(C)c1ccnn1C1(C(=O)Nc2ccc(Cl)cc2OC(F)F)CCN(Cc2cccc(C(=O)O)n2)CC1 [Compound 36, 6-[[4-[[4-chloro-2-(difluoromethoxy)phenyl]carbamoyl]-4-(5-isopropylpyrazol-1-yl)-1-piperidyl]methyl]pyridine-2-carboxylic acid]
24 | 11 nM | CC(C)c1ccnn1C1(C(=O)Nc2ccc(Cl)cc2OC(F)F)CCN(CC2(C(=O)O)CCN(c3cnccn3)CC2)CC1 [Compound 18, 4-[[4-[[4-chloro-2-(difluoromethoxy)phenyl]carbamoyl]-4-(5-isopropylpyrazol-1-yl)-1-piperidyl]methyl]-1-pyrazin-2-yl-piperidine-4-carboxylic acid]
25 | 57.2 nM | CC(C)c1ccnn1C1(C(=O)Nc2ccc(Cl)cc2OC(F)F)CCN([C@@H]2CO[C@H](C(=O)O)C2)CC1 (single isomer, unassigned) [Compound 137]
26 | 30.9 nM | COc1cnn([C@@H](CN2CCC(C(=O)Nc3ccc(Cl)cc3OC(F)F)(n3nccc3C(C)C)CC2)C(=O)O)c1 [Compound 225, (2S)-3-[4-[[4-chloro-2-(difluoromethoxy)phenyl]carbamoyl]-4-(5-isopropylpyrazol-1-yl)-1-piperidyl]-2-(4-methoxypyrazol-1-yl)propanoic acid]

Row | Compound | IC50
27 | CC(C)c1ccnn1C1(C(=O)Nc2ccc(Cl)cc2OC(F)F)CCN(C2CC(NC(=O)OC(C)(C)C)(C(=O)O)C2)CC1 (stereo not drawn) [Compound 124, 1-(tert-butoxycarbonylamino)-3-[4-[[4-chloro-2-(difluoromethoxy)phenyl]carbamoyl]-4-(5-isopropylpyrazol-1-yl)-1-piperidyl] cyclobutanecarboxylic acid] | 49.3 nM
